In patent US9987200B2, “Activated micro-bubble based root canal disinfection” (SyACT, LLP, priority 2014, dated 2018):
One block for each compound: values may come before it.

Experiments:
bacterial biofilms = assay: Laser confocal microscopy of treated root canals, live/dead bacteria (FIGS. 20-22); format: cell-based; details: then sonic and light activation of the micro-bubble solution
From the text: FIGS. 21-22 show laser confocal microscopy images showing bacterial biofilms (and dead cells as red and viable cells are green).
In these photographs, active bacteria are shown in green and dead bacteria as shown in red. FIG. 20 contains photomicrographs of a control tooth.

[1] = Singlet oxygen release measured with 1,3-diphenylisobenzofuran (DPBF); format: physicochemical; details: with sonic activation compared with no sonic activation (FIG. 11)
Method: As noted above, when the light reaches the photosensitive compound, the photosensitive compound releases energy to convert the oxygen molecules to singlet oxygen. […] The singlet oxygen release was measured using 1, 3-diphenylisobenzofuran (DPBF). DPBF is a chemical used to study the degree of release of singlet oxygen; it is not actually part of the micro-bubble solution or the photosensitizing solution. As is known, DPBF undergoes bleaching with singlet oxygen and this can be calorimetrically quantified. […]
FIG. 11 contains graphs showing singlet oxygen yield of methylene blue (on the left hand graph) and rose bengal (on the right hand graph) both with sonic activation (square data points) and without sonic activation (diamond data points). […] The substantial fall off in absorbance in the sonically activated samples (as compared to the non-activated samples) for both the methylene blue and the rose bengal show substantial increase in micro-bubble activity within the first few seconds of activation of the micro-bubble solution.

[2] = system: Enterococcus faecalis biofilms; assay: Confocal laser scanning microscopy of biofilms subjected to different treatments (FIG. 15); format: cell-based; details: one week old E. faecalis biofilms; live green, dead red; light 660 nm
From the text: FIG. 15 contains in the first two columns, images showing the three-dimensional confocal laser scanning microscopy reconstruction of the Enterococcus faecalis biofilms subjected to different treatments (60×).
The first two columns of FIG. 15 contain images which show one week old bacterial biofilms of Enterococcus faecalis before and after treatment for the different groups. Each of the six images in the first two columns show active and dead bacteria, with the active bacteria being shown in green and the dead bacteria being shown in red. The two left-hand columns of FIG. 15 contains, images showing the three-dimensional confocal laser scanning microscopy reconstruction of the Enterococcus faecalis biofilms subjected to different treatments (60×). […] However, there active bacteria remain.

[3] = cited from earlier work

Fall off in absorbance (singlet oxygen yield) [1]: falls off much more rapidly
Compound: CN(C)c1ccc2nc3ccc(=[N+](C)C)cc-3sc2c1 [methylene blue]
Active bacteria remaining in root canal (bacterial biofilms; MB in a water carrier): substantially all of the active bacteria have been eliminated
Active bacteria remaining in root canal (bacterial biofilms; MB in polyethylene glycol, alcohol and water carrier solution): substantially all of the active bacteria have been eliminated

Fall off in absorbance (singlet oxygen yield) [1]: fell off much more quickly
Compound: O=C([O-])c1c(Cl)c(Cl)c(Cl)c(Cl)c1-c1c2cc(I)c(=O)c(I)c-2oc2c(I)c([O-])c(I)cc12.[Na+].[Na+] [rose bengal]

Compound: OCl [sodium hypochlorite]
Active (live) bacteria remaining in biofilm [2]: kills (eliminates) nearly all of the active bacteria

Compound: Triton X-100
Solubility ([3]; at 25° C. in water, benzene, toluene, xylene, trichloroethylene, ethylene glycol, ethyl ether, ethanol, isopropanol, ethylene dichloride): soluble in all proportions
Viscosity (Brookfield) ([3]; at 25° C.): 240 cps
